This note sets out measurements from paper PMC8231113, “Protein Secondary Structure Affects Glycan Clustering in Native Mass Spectrometry” (Life, 2021).

What all share (assay type): binding
Test [1] addresses T1, cytochrome c from equine heart (cyt c) (Equus caballus, UniProt P00004).
T1 construct: cytochrome c from equine heart (cyt c, CAS number 9007-43-6); purchased Sigma-Aldrich (Merck, Germany); host or cells: equine heart
Description: Native MS glycan clustering to reference protein cyt c. Conditions: on Cyt c. The procedure:
(§1) Prior to MS analysis, purified P dimers were buffer exchanged to 150 mM ammonium acetate (Sigma-Aldrich, reagent grade ≥98%) at pH 7 via centrifugal filter units at 12,000× g at 4 °C (Vivaspin 500, MWCO 10000, Sartorius). Glycans for native MS analysis were mixed with 1 µM (per monomer) purified GII.4 Saga P dimer and 3 µM of the reference proteins at indicated concentrations. Native mass spectra were measured at room temperature in positive ion mode on a high mass modified LCT Premier mass spectrometer (Waters/Micromass, UK and MS Vision, the Netherlands) with a nano-ESI source. In house-made gold-coated electrospray capillaries were used for direct-sample infusion without any accessory chromatographic separation. The voltages and pressures were optimized for non-covalent protein complexes. The gas pressure used in the source hexapole was set between 6.5 and 6.8 × 10^−2 mbar argon optimized for minimal complex dissociation and the backing pressure of the source roughing pump was set between 7.0 and 8.5 mbar. Spectra were recorded with applied voltages for the capillary and cone of 1.20 kV and 240 V, respectively. Note that charge state distributions for P dimers were sometimes slightly shifted as was the degree of glycan clustering per charge state. These changes were highly variable and not quantifiable.
(§2) For calibration of the raw data, a 25 mg/mL cesium iodide spectrum from the same day was used. MassLynx V4.1 (Waters, Manchester, UK) was used to assign peak series to protein species and to determine the mass after minimal smoothing. Furthermore, OriginPro 2016 SR2 (OriginLab, Northampton, MA, USA) was used for spectral deconvolution and curve fitting. Correction for nonspecific protein-ligand clustering was performed as described. Corrected peak areas were averaged and normalized to the free-protein signal. Data were based on at least three independent measurements. Python code Panda and Numpy package were used to calculate the specific binding of P dimers according to the glycan clustering ratio obtained from the selected reference protein candidates. Seaborn and matplotlib.pyplot package were imported into a python script to plot the results. The module of sklearn.linear model was applied for linear regression. The matplotlib and heatmap package were used to plot the heatmap.
(§3) Theoretically, the KD is calculated by measuring the concentration of the three components (Pfree, Lfree, PL) in solution. Usually, these values are only indirectly accessible because they require ligand titration up to binding saturation. However, native MS allows for the directly measurement of Pfree and PL, from which Lfree can be calculated using the input concentrations. In the present work, the non-covalent interaction was measured in the gas phase assuming identical ESI and detection efficiency for free and glycan-associated proteins, both for the analyte and the reference protein. […] For P dimers, the equations reflect glycan binding to the individual monomers assuming that binding sites on each monomer are equal and independent.
(§4) Using R described in Equation (3), the KD calculation can be re-written into Equation (4) with the known initial concentration of glycan ligand [L0] and protein [P0], adapted from Sun et al.:(3) R=PLequil∕Pequil=∑nA(PL^n+)∕n∕∑nA(P^n+)∕n (4) KD =L0−RP0/1+R/R
(§5) For the carbohydrate-binding experiments, it was essential to keep the initial protein concentrations and pH value constant during the analysis of the protein-carbohydrate solutions. While acidification occurs in any ESI droplet, the remaining solution in the capillary changes pH over time. Therefore, accumulated spectra were obtained within 10 min after the voltages were applied to minimize the influence of pH changes during the measurements. […]

The target in test [2] is T2, ubiquitin from bovine erythrocytes (Ubq) (Bos taurus, UniProt P0CG53).
T2 construct: ubiquitin from bovine erythrocytes (Ubq, CAS number 75986-22-4); purchased Sigma-Aldrich (Merck, Germany); host or cells: bovine erythrocytes
The experiment in a line: Native MS glycan clustering to reference protein Ubq. As to conditions: on Ubq. As for the experimental part:
as §1, §2, §3, §4, §5

For test [3], the target named is T3, alcohol dehydrogenase from Saccharomyces cerevisiae (ADH) (Saccharomyces cerevisiae, UniProt P00330).
T3 construct: alcohol dehydrogenase from Saccharomyces cerevisiae (ADH, CAS number 9031-72-5); purchased Sigma-Aldrich (Merck, Germany); host or cells: Saccharomyces cerevisiae
T3 sequence (P00330 2-348 limits assumed): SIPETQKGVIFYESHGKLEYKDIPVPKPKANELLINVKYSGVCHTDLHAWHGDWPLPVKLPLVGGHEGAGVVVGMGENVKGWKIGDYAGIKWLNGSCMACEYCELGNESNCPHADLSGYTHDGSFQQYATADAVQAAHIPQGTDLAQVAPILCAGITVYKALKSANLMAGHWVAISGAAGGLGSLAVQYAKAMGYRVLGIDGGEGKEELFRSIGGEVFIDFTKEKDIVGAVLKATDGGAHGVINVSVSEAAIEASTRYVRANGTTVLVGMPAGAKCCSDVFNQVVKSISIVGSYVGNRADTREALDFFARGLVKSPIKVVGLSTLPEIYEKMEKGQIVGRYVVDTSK
Description: Native MS glycan clustering to reference protein ADH. Conditions: on ADH. The procedure:
as §1, §2, §3, §4, §5

T1 sequence (P00004 whole entry): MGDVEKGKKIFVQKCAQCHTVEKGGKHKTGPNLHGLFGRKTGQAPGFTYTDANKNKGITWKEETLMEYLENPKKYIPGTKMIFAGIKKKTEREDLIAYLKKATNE

Regarding `CC(=O)N[C@H]1[C@H](O[C@H]2[C@@H](O)[C@@H](CO)O[C@H](O[C@@H]3[C@H](O)[C@@H](O)[C@H](O[C@H]4[C@H](O)[C@@H](O)C(O)O[C@@H]4CO)O[C@@H]3CO)[C@@H]2O)O[C@H](CO)[C@H](O)[C@@H]1O` (stereo partly drawn) [Gb4, GalNAc β1-3 Galα1-4Galβ1-4Glc], the “Glycan-Clustering Ratio R” value in test [1] (100 µM glycan) came to 0.10±0.01; in test [1] (200 µM glycan), 0.15±0.00; in test [1] (300 µM glycan) it was 0.19±0.03; in test [1] (400 µM glycan) it was 0.29±0.04; in test [1] (500 µM glycan), 0.45 ± 0.02; in test [2] (100 µM glycan), 0.03±0.01. Also, the “Glycan-Clustering Ratio R” value in test [2] (200 µM glycan) is reported as 0.04±0.01; in test [2] (300 µM glycan) it was 0.12±0.02; in test [2] (400 µM glycan) it was 0.21±0.20; in test [2] (500 µM glycan), 0.09 ± 0.03; in test [3] (100 µM glycan), 0.34±0.04; in test [3] (200 µM glycan) it was 0.66±0.03. The “Glycan-Clustering Ratio R” value in test [3] (300 µM glycan) was determined as 0.81±0.11; in test [3] (400 µM glycan) it was 1.03±0.08; in test [3] (500 µM glycan) it was 1.26 ± 0.03.

As to `CC(=O)N[C@H]1[C@@H](O[C@H]2[C@@H](O)[C@@H](CO)O[C@@H](O[C@H]3[C@H](O)[C@@H](CO)OC(O)[C@@H]3NC(C)=O)[C@@H]2O[C@@H]2O[C@@H](C)[C@@H](O)[C@@H](O)[C@@H]2O)O[C@H](CO)[C@H](O)[C@@H]1O` (stereo partly drawn) [HBGA A, GalNAcα1-3(Fucα-2)Galβ1-3GlcNAc], the “Glycan-Clustering Ratio R” value in test [1] (100 µM glycan) was 0.18±0.03; in test [1] (200 µM glycan) it was 0.16± 0.02; in test [1] (300 µM glycan), 0.19± 0.03; in test [1] (400 µM glycan), 0.27± 0.02; in test [1] (500 µM glycan), 0.41 ± 0.09; in test [2] (100 µM glycan), 0.06±0.03. Moreover, the “Glycan-Clustering Ratio R” value in test [2] (200 µM glycan) worked out at 0.04±0.01; in test [2] (300 µM glycan), 0.13±0.01; in test [2] (400 µM glycan) it was 0.18±0.01; in test [2] (500 µM glycan) it was 0.10 ± 0.05; in test [3] (100 µM glycan), 0.39± 0.02; in test [3] (200 µM glycan) it was 0.65± 0.02. The “Glycan-Clustering Ratio R” value came to 0.88± 0.10 in test [3] (300 µM glycan), 0.98± 0.05 in test [3] (400 µM glycan) and 1.32 ± 0.10 in test [3] (500 µM glycan).

For the molecule `CC(=O)N[C@H]1C(O)O[C@H](CO)[C@@H](O)[C@@H]1O[C@@H]1O[C@H](CO)[C@H](O)[C@H](O[C@H]2O[C@H](CO)[C@H](O)[C@H](O)[C@H]2O)[C@H]1O[C@@H]1O[C@@H](C)[C@@H](O)[C@@H](O)[C@@H]1O` (stereo partly drawn) [HBGA B, Galα1-3(Fucα1-2)Galβ1-3GlcNAc], the “Glycan-Clustering Ratio R” value in test [1] (100 µM glycan) is 0.14±0.01; in test [1] (200 µM glycan), 0.15±0.01; in test [1] (300 µM glycan) it was 0.19±0.03; in test [1] (400 µM glycan) it was 0.29±0.02; in test [1] (500 µM glycan), 0.35 ± 0.03; in test [2] (100 µM glycan) it was 0.04±0.01. For the same molecule, the “Glycan-Clustering Ratio R” value is on record as 0.04±0.01 in test [2] (200 µM glycan); 0.10±0.03 in test [2] (300 µM glycan); 0.18±0.01 in test [2] (400 µM glycan); 0.25 ± 0.00 in test [2] (500 µM glycan); 0.42±0.03 in test [3] (100 µM glycan); 0.64±0.06 in test [3] (200 µM glycan). Moreover, the “Glycan-Clustering Ratio R” value was determined as 0.97±0.08 in test [3] (300 µM glycan), 1.02±0.08 in test [3] (400 µM glycan) and 1.45 ± 0.11 in test [3] (500 µM glycan).
